From patent US6713475B2, “Tricyclic benzodiazepines as vasopressin receptor antagonists” (Ortho-McNeil Pharmaceutical, Inc., priority 1999, dated 2004) come the findings set out here.

pIC50: −log10 of the molar value.

The first assay concerns the target V2 (Homo sapiens, UniProt P30518). Nature of the assay: In vitro recombinant vasopressin receptor binding assay (V2 Bdg), displacement of 3H-arginine vasopressin. Set-up: expressed in transfected cells; host or cells: HEK-293. Conditions: 0.1 uM; printed in parentheses in place of IC50. The method, then:
In vitro Recombinant Vasopressin Receptor Binding Assay
Compounds were assessed for their ability to displace ^3H-arginine vasopressin from the human V-1 or V-2 receptor in HEK-293 cells. […] Into wells of 96-well round bottom polypropylene plates were added buffer, test compound, membrane (containing cloned human V-1 or V-2 receptor), and ^3H-vasopressin. The reaction plates were allowed to sit at room temperature for one hour. The samples were filtered through Unifilter GF/C plates (presoaked in 0.3 polyethyleneimine). The plates were washed 5 times with cold physiological saline containing 0.05% Tween 20. After drying, the bottom of the filter plates were sealed and 0.025 ml of Microscint-20 was added to each filter. The top of the plate was sealed, and the plate was counted.
For orientation: Loss of bound radioactivity is the signal in a displacement assay; it reports binding, not function.
For `O=C(Nc1ccc(C(=O)N2CC3CSCCN3Cc3ccccc32)c(F)c1)c1ccccc1-c1ccsc1` (racemic) [Compound 51, (RS)-2-(3-Thienyl)-N-[3-fluoro-4-(1,3,4,12a-tetrahydro-6H-[1,4]thiazino[4,3-a][1,4]-benzodiazepin-11(12H)-yl-carbonyl)phenyl]benzamide], the “V2 Bdg % inh” value is “(62%/0.1 uM)”.
`O=C(Nc1ccc(C(=O)N2CC3CN(Cc4ccccc4)CCN3Cc3ccccc32)cc1)c1ccccc1-c1ccccc1` (racemic) [Compound 57, (RS)-2-Phenyl-N-[4-(1,3,4,12a-tetrahydro-2-benzyl-6H-[1,4]pyrazino[4,3-a][1,4]-benzodiazepin-11(12H)-yl-carbonyl)phenyl]benzamide]: the “V2 Bdg % inh” value is reported as “(25%/0.1 uM)”.
Regarding `CC(C)N1CCN2Cc3ccccc3N(C(=O)c3ccc(NC(=O)c4ccccc4-c4ccccc4)cc3Cl)CC2C1` (racemic) [Compound 60, (RS)-2-Phenyl-N-[3-chloro-4-(1,3,4,12a-tetrahydro-2-isopropyl-6H-[1,4]pyrazino[4,3-a][1,4]-benzodiazepin-11(12H)-yl-carbonyl)phenyl]benzamide], the “V2 Bdg % inh” value is recorded as “(25%/0.1 uM)”.
Same read-out and setting: next, “(RS)-2,6-Dimethyl-N-[3-chloro-4-(1,3,4,12a-tetrahydro-2-methyl-6H-[1,4]pyrazino[4,3-a][1,4]-benzodiazepin-11(12H)-yl-carbonyl)phenyl]benzamide [Compound 63]”: “(9%/0.1 uM)”.

The assay is the same for the next values; noted with them: membrane with cloned human V-2 receptor (HEK-293).
As for `O=C(Nc1ccc(C(=O)N2CC3COCCN3Cc3ccccc32)c(Cl)c1)c1cc(F)ccc1-c1ccccc1` (racemic) [Compound 111, (RS)-2-Phenyl-5-fluoro-N-[3-chloro-4-(1,3,4,12a-tetrahydro-6H-[1,4]oxazino[4,3-a][1,4]-benzodiazepin-11(12H)-yl-carbonyl)phenyl]benzamide], the pIC50 is 7.64.
With `O=C(Nc1ccc(C(=O)N2CC3CSCCN3Cc3ccccc32)c(O)c1)c1ccccc1-c1ccccc1` (racemic) [Compound 109, (RS)-2-Phenyl-N-[3-hydroxy-4-(1,3,4,12a-tetrahydro-6H-[1,4]thiazino[4,3-a][1,4]-benzodiazepin-11(12H)-yl-carbonyl)phenyl]benzamide], the pIC50 is 8.15.
For the molecule `O=C(Nc1ccc(C(=O)N2CC3CSCCN3Cc3ccccc32)c(Cl)c1)c1ccccc1-c1ccsc1` (racemic) [Compound 50, (RS)-2-(3-Thienyl)-N-[3-chloro-4-(1,3,4,12a-tetrahydro-6H-[1,4]thiazino[4,3-a][1,4]-benzodiazepin-11(12H)-yl-carbonyl)phenyl]benzamide], the pIC50 is 7.40.
The same measure, in the same setting: the result for `COc1cccc(-c2ccccc2C(=O)Nc2ccc(C(=O)N3CC4COCCN4Cc4ccccc43)c(Cl)c2)c1` (racemic) [Compound 113, (RS)-2-(3-Methoxy-phenyl)-N-[3-chloro-4-(1,3,4,12a-tetrahydro-6H-[1,4]oxazino[4,3-a][1,4]-benzodiazepin-11(12H)-yl-carbonyl)phenyl]benzamide] reads 8.10; that for `COc1cc(C(=O)N2CC3CN(C)CCN3Cc3ccccc32)ccc1NC(=O)c1ccccc1-c1ccc(C)cc1` (racemic) [Compound 73, (RS)-2-(4-Methyl-phenyl)-N-[2-methoxy-4-(1,3,4,12a-tetrahydro-2-methyl-6H-[1,4]pyrazino[4,3-a][1,4]-benzodiazepin-11(12H)-yl-carbonyl)phenyl]benzamide], 7.37.

The assay is the same for the next values; noted with them: read-out: V2 Bdg % inh.
As for `Cc1csc(-c2ccccc2C(=O)Nc2ccc(C(=O)N3CC4COCCN4Cc4ccccc43)cc2)c1` (racemic) [Compound 54, (RS)-2-(4-Methyl-2-thienyl)-N-[4-(1,3,4,12a-tetrahydro-6H-[1,4]oxazino[4,3-a][1,4]-benzodiazepin-11(12H)-yl-carbonyl)phenyl]benzamide], the inhibition at 0.1 µM was found to be 57%.
Same read-out and setting: the result for `COc1cc(C(=O)N2CC3CN(C)CCN3Cc3ccccc32)ccc1NC(=O)c1ccccc1-c1ccc(C)cc1` (racemic) [Compound 73, (RS)-2-(4-Methyl-phenyl)-N-[2-methoxy-4-(1,3,4,12a-tetrahydro-2-methyl-6H-[1,4]pyrazino[4,3-a][1,4]-benzodiazepin-11(12H)-yl-carbonyl)phenyl]benzamide] reads 73%.

One may read the pIC50 as the IC50 on a negative log10 scale, so that one unit is a factor of ten.
